In patent publication US6995188B2 (priority 2002, dated 2006):
Like-named read-outs stand apart in the source and are kept apart here.

Key:
in vivo = settings: Swiss Webster, mouse
[1] = tested on: blood mononuclear cells from leukemia patients; assay type: cell-based, human
physchem = settings: water
[2] = tested on: caspase 3 and caspase 3-like activities; assay type: cell-based, human
[3] = tested on: P388 lymphocytic leukemia cells; settings: mouse, in vivo, ip, 100 mg/kg; cited from earlier work
U937/PR9 cells = assay type: cell-based, human
[4] = Swiss Webster, mouse, in vivo; for Dead/Total Number / Dead/Total Number for IP Administration: ip

C[As](C)SC[C@H](NC(=O)CC[C@H](N)C(=O)O)C(=O)NCC(=O)O [SGLU1, S-(dimethylarsino) glutathione]
LD50 (in vivo): 350 mg/kg | MTD (in vivo; iv): 350 mg/kg | activity against blood cells from patients with leukemia [1]: significant activity against blood tumor cells from patients with leukemia | solubility (physchem): ~60 mg/mL | activation of caspases (PhiPhiLux staining) [2]: activation of caspases | % T/C [3]: 164% | toxicity to normal cells, long-term clonogenic assay (normal donor cells): less toxic then arsenic trioxide to normal cells | influence of functional PML/RARalpha gene on sensitivity (U937/PR9 cells): no influence on the sensitivity of the cells | tolerance (mortality) [4]: tolerated the 178 mg/kg and the 285 mg/kg doses of SGLU1 well | Dead/Total Number ([4]; 178 mg/kg): 0/5 | Dead/Total Number ([4]; 285 mg/kg): 1/5 | Dead/Total Number for IP Administration ([4]; 318 mg/kg): 0/5 | Dead/Total Number ([4]; 357 mg/kg): 5/5 | Dead/Total Number for IP Administration ([4]; 375 mg/kg): 4/5 | Dead/Total Number for IV Administration ([4]; 318 mg/kg): 1/5 | Dead/Total Number for IV Administration ([4]; 375 mg/kg): 5/5
